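Growth conditions: 96-well plates. Treatment: test compound, 48 hours, 5 concentrations. Analysis: linear interpolation between bracketing concentrations; unreached endpoints set to highest concentration. The concentration for 50% growth inhibition is given as GI50. TGI denotes the concentration required for complete inhibition of growth.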
Legend:
Assay in all cases: DTP human tumour cell line panel, 48 h
PC-3 prostate = test system: PC-3 prostate
CAKI-1 renal = test system: CAKI-1 renal
SW-620 colon = test system: SW-620 colon
BT-549 breast = test system: BT-549 breast
NCI-H226 lung = test system: NCI-H226 lung
RPMI-8226 leukemia = test system: RPMI-8226 leukemia
SNB-75 CNS = test system: SNB-75 CNS
SF-268 CNS = test system: SF-268 CNS
M14 melanoma = test system: M14 melanoma
A498 renal = test system: A498 renal

Structure (SMILES) | GI50 (PC-3 prostate) [µM] | TGI (PC-3 prostate) [µM] | GI50 (CAKI-1 renal) [µM] | TGI (CAKI-1 renal) [µM] | GI50 (SW-620 colon) [µM] | TGI (SW-620 colon) [µM] | GI50 (BT-549 breast) [µM] | TGI (BT-549 breast) [µM] | GI50 (NCI-H226 lung) [µM] | TGI (NCI-H226 lung) [µM] | GI50 (RPMI-8226 leukemia) [µM] | TGI (RPMI-8226 leukemia) [µM] | GI50 (SNB-75 CNS) [µM] | TGI (SNB-75 CNS) [µM] | GI50 (SF-268 CNS) [µM] | TGI (SF-268 CNS) [µM] | GI50 (M14 melanoma) [µM] | TGI (M14 melanoma) [µM] | GI50 (A498 renal) [µM] | TGI (A498 renal) [µM]
COc1ccc2c(c1)N(CCO)C1=C(C(=O)OC1)C2c1cccc(Br)c1 (centres undefined) | 0.0618 | 54.4 | 0.0395 | 35.6 | 0.046 | > 100 | 0.305 | 34 | 0.175 | 2.56 | 0.184 | 28.4 | 0.0647 | > 100 | 0.0864 | 21.3 | 0.0612 | 0.597 | 0.0293 | 1.21
O=C(/C=C/c1ccc2c(c1)OCO2)c1ccccc(=O)c1O |  | > 100 |  | 24.1 |  | > 100 |  | 47.6 |  | > 100 |  | > 100 |  | 33.1 |  | 35.9 |  |  |  | > 100
CCOC(=O)C1=C(N)Oc2cc(OC)ccc2C1c1ccc(F)c(F)c1 (centres undefined) | 2.33 | 15.1 |  |  | 0.516 | 15.9 | 2.05 | 16.3 | 12.9 | 32.7 | 2.73 | 18.2 | 1.64 | 11.1 | 8.56 | 23.5 | 0.483 | 13.5 | 1.29 | 11.9
CCN1CCN(Cc2ccc3cc(C(=O)Nc4cc(NC(=O)c5ccc6c(c5)OCCO6)ccc4F)ccc3n2)CC1 | 0.0593 | 11.6 | 0.018 | 0.103 | 0.0462 | 11 | 0.146 | 7.82 |  | 3.45 | 0.0403 | 0.325 | 0.0178 | 0.456 | 0.0742 | 10 | 0.0505 | 11.8 | 0.0159 | 0.265
COc1ccc2c(c1)c(=O)oc1cc(OC/C(=N\O)c3ccc(F)cc3)ccc12 | 24.1 | 79 | 19.9 | 47.8 | 26.4 | 96.3 | 18.8 | 44.2 | 37 | > 100 | 16.7 | 56.4 | 18.5 | 47.9 | 24.9 | > 100 | 15.7 | 30.7 | 16.7 | 35.3
Nc1nn(C(=O)Nc2ccc(Cc3ccccc3)cc2)c2ccccc12 | 13.5 | 51.1 | 21.1 | 58 | 3.62 | 41.5 | 13.5 | 39.6 | 13.5 | 58.3 | 1.86 | 25.8 | 17 | 47.4 | 4.66 | 32.3 | 0.772 | > 100 | 16.7 | 31.5
COc1ccc(-c2oncc2-c2cc(OC)c3c(c2)OCO3)cc1 | 2.99 | > 66.1 | 2.16 | 31.2 | 1.18 | > 100 | 5.24 | > 100 | 9.53 | > 93.8 | 3.93 | > 39.5 | 1.43 | 5.12 | 7.38 | > 100 | 2.33 | > 69.6 | 1.49 | 7.4
CC(=O)/C=C/c1ccc(N(C)Cc2ccc(C(C)(C)C)cc2)cc1 | 97.2 | 465 |  |  | 156 | 441 | 133 | 277 | 149 | 315 | 53.9 | 237 | 145 | 345 | 143 | 332 | 132 | 321 | 124 | 251
O=C(Nc1ncc(Cc2ccc(Cl)cc2)s1)c1ccc2c(c1)OCCO2 | 0.047 | > 100 | 0.0547 | 39 | 0.04 | > 100 | 0.207 | > 83.4 | 0.358 |  | 0.0526 | > 100 | 0.0266 | 3.4 | 0.786 | > 100 | 0.0409 | 75.3 | 0.0187 | 0.0809
COc1ccc2cc(C(=O)/C=C/c3ccccc3OC)ccc2c1 | 2.62 | 23.1 | 0.862 | 4.88 | 2.81 | > 33.2 | 4.55 | 24.6 | 3.24 | 18.7 | 1.65 | 10.6 | 4.06 | > 51.6 | > 20.6 | > 100 | 4.34 | 25.6 | 6.45 | 30.7
C(#Cc1ccccc1C#Cc1ccccn1)c1ccc(OCCCCCCOc2ccc(C#Cc3ccccc3C#Cc3ccccn3)cc2)cc1 | 5.18 | 14 | 5.05 | 12 | 4.51 | 10.6 | 4.39 | 12.1 | 4.33 | 13.3 | 0.387 | 10.1 | 5.26 | 13.8 | 2.52 | 10.8 | 7.47 | 17.6 | 5.93 | 12.1
Cc1cc(NC(=O)C(=O)Cc2nc3ccccc3s2)ccc1Cl |  | > 100 |  | > 100 |  | > 100 |  | > 100 |  | > 100 |  | > 100 |  | > 100 |  | > 100 |  | > 100 |  | > 100
COc1cc2c(/C=C3/C(=O)Nc4c3ccc3ccccc43)c(Cl)[nH]c2cc1C | 0.0152 | > 16.8 | 0.00894 |  | 0.0781 | > 50 | 0.0254 | > 50 | 0.249 | 33.2 | 0.0144 |  |  |  | 0.0218 | > 14.6 | 0.0119 | 0.032 | > 50 | > 50

— PubChem BioAssay (NCI)
